From patent US20210302459A1, “Biosensor Storage Methods” (Queen's University at Kingston, priority 2020, published 2021)

What was measured:
Assay type in all cases: binding
[1] = target: T1, TLR2/6 biosensor (TLR2 and TLR6 proteins immobilized on gold electrode) (Mus musculus, UniProt Q9EPW9+Q9QUN7); assay: Response of TLR2/6 biosensors to Pam2CSK4 after 2 weeks storage under different conditions; details: for detection response / activity in comparison to control: 50 μM Pam2CSK4; for activity in comparison to control: −33° C.
T1 construct: Fc (fusion partner, Fc chimera); purchased R&D Systems Inc. 1530-TR-050 (TLR2); 1533-TR-050 (TLR6)
Experimental: Referring to FIGS. 2A-C, plots are shown that provide detection responses obtained from TLR2/6 biosensors in the presence of Pam2CSK4 with no storage, and with storage under different conditions for 2 weeks (see Example 5 for details). Columns labelled ‘A’ in FIGS. 2A-C correspond to detection responses of fresh (i.e., not stored) TLR2/6 biosensors to different concentrations of Pam2CSK4. Responses of TLR2/TLR6 biosensors stored in PBS buffer at −80° C. (see columns labelled ‘E’ in FIGS. 2A-2C) for two weeks to Pam2CSK4 were equivalent to the responses from freshly prepared biosensors. That is, there was no significant loss of performance under storage condition E (see Table 1).
Biosensors as described herein (e.g., TLR2/6 proteins immobilized onto conductive surfaces) were stored under varying conditions (see Table 1) for two weeks and then challenged by the PAMP (Pam2CSK4). As shown in FIGS. 2A-2C, a comparison was done of the responses from freshly prepared and stored biosensors were compared. Calibration curves including more concentration points are shown in FIGS. 6A-6D, where ΔRCT(%) is a normalized detection signal. ΔRCT(%)=[RCT (after exp.)−RCT (before exp.)]/RCT (before exp.), where “before exp.” refers to before exposure to analyte, and “after exp.” refers to after exposure to the analyte.
Three storage temperatures were selected, 4° C., −33° C., and −80° C. Ionic salt solutions are commonly used to maintain protein folding and stability, thus, to preserve the biosensor during storage, varying buffer solutions were used.
Batch B biosensors were stored in PBS buffer of pH˜7.4 at 4° C.
The storage conditions for Batch C was −33° C. in 50% v/v PBS buffer at pH ˜7.4 and glycerol. The storage conditions for Batch D was −33° C. in 50% v/v Tris buffer pH ˜7.7 and glycerol. […] However, the activity was reduced down to 30% in comparison to control.
The storage conditions for Batch E was −80° C. in PBS buffer at pH ˜7.4.
Batch F biosensors were stored at −80° C. in the absence of any buffer solution.
Batch G biosensors were disposed in a buffer solution that included amino acids. Specifically, Batch G buffer solution included 50 mM L-Arg, 50 mM L-Glu, 1 M NaCl and 200 mM imidazole in 50 mM Tris-HCl (pH˜8.0). The solution surrounded each biosensor in Batch G and they were kept at 4° C.
Different concentrations of Pam2CSK4 were used to trigger the responses. These concentrations were 0.1 μM for FIG. 2A; 1.0 μM for FIG. 2B; and 50 μM for FIG. 2C.

[2] = target: T1, TLR2/6 biosensor (TLR2 and TLR6 proteins immobilized on gold electrode); assay: Electrochemical impedance response (ΔRct %) of freshly prepared TLR2/6 biosensors to isolated PAMPs
Experimental: As shown in FIGS. 1A-B, a TLR2/6 biosensor was prepared following the steps as shown. Specifically, TLR biosensors were prepared using DropSens gold screen printed electrode (SPE). 1-lipoic acid n-hydroxysuccinimide ester (LPA, a linker molecule) was synthesized following a published protocol (see Howarth, M., et al., Nat. Methods, 2008, 5, 397-399). LPA solution at a concentration of 2 mM was prepared using ethanol/MQ water (volume ratio of 1:1). A clean plastic petri dish was lined with a filter paper which was dampened with a 1:1 solution of ethanol and MQ. The DropSens SPE was placed on the filter paper and 50 μL of the 2 mM LPA solution was dropped onto the working electrode. The petri dish was sealed with parafilm and placed in a fridge at 277 K for 24 hours. An additional 50 μL of the 2 mM LPA solution was cast onto a working electrode and returned to the fridge for another 24 hours. After a total of 48 hours the SPE was rinsed thoroughly with ethanol and MQ water before blown dry with nitrogen. TLR2 and TLR6 proteins were individually reconstituted into solutions at a concentration of 200 μg/mL using PBS buffer (pH ˜7.4). The TLR2/6 protein mixture was prepared by mixing 100 μL of TLR2 and 100 μL of TLR6 and mixing on a vortex machine for 30 seconds in a 1.5 mL microcentrifuge tube. The SPEs were placed in petri dishes with filter papers dampened with PBS buffer (pH ˜7.4). A small drop of TLR 2/6 mixture (5 μL) was dispensed onto each working electrode and then the petri dishes were sealed with PARAFILM™ and left in the fridge at 277 K for 72 hours. The electrodes were rinsed with MQ water after the immersion and blown dry with nitrogen. An ethanolamine-tris buffer solution was prepared by dissolving 1.2 g of ethanolamine, 0.121 g tris base in 20 mL of MQ water. The pH of the solution was adjusted to 8.4 using concentrated hydrochloric acid. After the step of immobilizing TLR2/6 proteins, electrode surfaces were immersed in ethanolamine solutions for 1 hour to deactivate unreacted ester groups on the LPA monolayer.
All electrochemical measurements were preformed in faraday cages using DRP-CAC adapters for SPEs being measured. Cyclic voltammetry (CV), square wave voltammetry (SWV), and electrochemical impedance spectroscopy (EIS) measurements were completed using CHI6055E potentiostats (CH Instruments of Austin, Tex., USA). […] The experimental EIS curves were evaluated to determine the film resistance using ZSimpWin 2.0 software (available from AMETEK® Scientific Instruments of Berwyn, Pa., USA). […]
(§1) Sensor responses to different concentrations of Pam2CSK4, a gram-positive PAMP, were evaluated. […] Reduction in measured current correlated to the binding of Pam2CSK4 onto the TLR2/6 biosensor. […]

[3] = target: T1, TLR2/6 biosensor (TLR2 and TLR6 proteins immobilized on gold electrode); assay: Cyclic voltammetry peak current of TLR2/6 biosensors after exposure to analyte; details: concentration increased 0.1 to 50.0 μM; reduced from 147 μA
Experimental: As shown in FIGS. 1A-B, a TLR2/6 biosensor was prepared following the steps as shown. Specifically, TLR biosensors were prepared using DropSens gold screen printed electrode (SPE). 1-lipoic acid n-hydroxysuccinimide ester (LPA, a linker molecule) was synthesized following a published protocol (see Howarth, M., et al., Nat. Methods, 2008, 5, 397-399). LPA solution at a concentration of 2 mM was prepared using ethanol/MQ water (volume ratio of 1:1). A clean plastic petri dish was lined with a filter paper which was dampened with a 1:1 solution of ethanol and MQ. The DropSens SPE was placed on the filter paper and 50 μL of the 2 mM LPA solution was dropped onto the working electrode. The petri dish was sealed with parafilm and placed in a fridge at 277 K for 24 hours. An additional 50 μL of the 2 mM LPA solution was cast onto a working electrode and returned to the fridge for another 24 hours. […]
All electrochemical measurements were preformed in faraday cages using DRP-CAC adapters for SPEs being measured. […] The experimental EIS curves were evaluated to determine the film resistance using ZSimpWin 2.0 software (available from AMETEK® Scientific Instruments of Berwyn, Pa., USA). […]
as §1

T1 sequence (Q9QUN7 with tags, fused parts or gaps limits assumed): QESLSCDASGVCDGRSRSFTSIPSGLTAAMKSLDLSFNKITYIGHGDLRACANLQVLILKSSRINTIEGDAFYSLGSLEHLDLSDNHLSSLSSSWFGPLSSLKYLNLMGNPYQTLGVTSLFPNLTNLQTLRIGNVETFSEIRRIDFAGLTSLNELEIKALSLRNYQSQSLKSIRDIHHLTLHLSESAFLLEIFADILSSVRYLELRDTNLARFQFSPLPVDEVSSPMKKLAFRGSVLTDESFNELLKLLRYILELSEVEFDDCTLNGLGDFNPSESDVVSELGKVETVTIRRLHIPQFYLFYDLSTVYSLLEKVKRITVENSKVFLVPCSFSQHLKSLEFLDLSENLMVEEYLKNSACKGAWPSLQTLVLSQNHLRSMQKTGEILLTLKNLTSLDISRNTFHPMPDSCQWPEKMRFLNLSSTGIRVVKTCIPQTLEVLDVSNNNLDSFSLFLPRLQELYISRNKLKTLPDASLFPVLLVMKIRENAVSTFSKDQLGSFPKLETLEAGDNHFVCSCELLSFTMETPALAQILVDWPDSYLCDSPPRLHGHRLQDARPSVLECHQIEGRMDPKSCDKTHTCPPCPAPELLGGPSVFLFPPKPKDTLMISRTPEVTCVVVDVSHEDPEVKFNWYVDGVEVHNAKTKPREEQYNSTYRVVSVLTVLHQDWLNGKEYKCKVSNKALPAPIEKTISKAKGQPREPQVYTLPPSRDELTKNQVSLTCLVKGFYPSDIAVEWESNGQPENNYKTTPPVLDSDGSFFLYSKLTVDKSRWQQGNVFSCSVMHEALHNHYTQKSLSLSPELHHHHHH
T1 sequence (Q9EPW9 with tags, fused parts or gaps limits assumed): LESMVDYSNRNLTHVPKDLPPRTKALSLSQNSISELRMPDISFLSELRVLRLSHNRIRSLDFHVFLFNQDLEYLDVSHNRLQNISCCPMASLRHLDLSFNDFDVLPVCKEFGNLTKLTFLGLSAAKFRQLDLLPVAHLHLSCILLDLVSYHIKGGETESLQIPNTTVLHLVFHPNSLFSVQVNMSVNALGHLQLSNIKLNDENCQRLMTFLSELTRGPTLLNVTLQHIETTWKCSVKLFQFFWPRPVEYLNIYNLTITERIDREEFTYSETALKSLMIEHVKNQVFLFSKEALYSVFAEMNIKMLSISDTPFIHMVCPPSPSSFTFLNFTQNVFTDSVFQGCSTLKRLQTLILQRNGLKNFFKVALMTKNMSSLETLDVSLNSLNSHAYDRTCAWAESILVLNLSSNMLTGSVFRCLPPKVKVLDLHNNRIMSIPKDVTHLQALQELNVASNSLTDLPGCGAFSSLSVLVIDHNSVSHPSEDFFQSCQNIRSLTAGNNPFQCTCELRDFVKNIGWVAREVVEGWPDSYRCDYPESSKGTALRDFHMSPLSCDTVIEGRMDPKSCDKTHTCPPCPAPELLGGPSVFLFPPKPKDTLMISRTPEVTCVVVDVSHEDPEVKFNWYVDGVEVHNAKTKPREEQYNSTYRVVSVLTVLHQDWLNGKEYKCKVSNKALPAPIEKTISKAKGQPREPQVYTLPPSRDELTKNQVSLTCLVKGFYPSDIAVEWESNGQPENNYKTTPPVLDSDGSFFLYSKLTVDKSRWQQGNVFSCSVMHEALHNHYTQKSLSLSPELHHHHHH

Row | Substance | detection response ([1]; freshly prepared biosensors (column A, no storage)) [%] | detection response ([1]; storage condition G: 2 weeks, 4° C., amino acid buffer pH ~8.0) [%] | response after storage ([1]; Batch B: 2 weeks, PBS buffer pH ~7.4, 4° C.) | activity in comparison to control ([1]; Batch C: 2 weeks, 50% v/v PBS/glycerol) [%] | activity in comparison to control ([1]; Batch D: 2 weeks, 50% v/v Tris/glycerol) [%] | response after storage versus control biosensor ([1]; Batch E: 2 weeks, −80° C., PBS buffer pH ~7.4, all concentrations) | response after storage ([1]; Batch F: 2 weeks, −80° C., no buffer solution) | electrochemical response (ΔRct %) ([2]; 0.1 μM analyte, fresh biosensors, 4 replicates) [%] | electrochemical response (ΔRct %) ([2]; 1 μM analyte, fresh biosensors, 4 replicates) [%] | electrochemical response (ΔRct %) ([2]; largest concentration, FIG. 4 comparison) [%] | peak current (cyclic voltammogram) after exposure [3] [μA] | electrochemical response (ΔRct %) ([2]; LPS from 0.1 to 63.6 μg/ml, any concentration) [%]
1 | Pam2CSK4 | 167±29 | 360±24 | no significant responses | 30 | 30 | within error of the control biosensor | lost most of their response | 24±12 | 58±13 | ~160 | 96 | –
2 | lipopolysaccharide [Salmonella LPS] | – | – | – | – | – | – | – | – | – | – | – | ≤ 40
